Converted amounts (≈) assume the structure as drawn. The source made the active and inactive calls. The rule behind the calls is not given here.
Assays:
[1] = target: T1, Bile acid receptor (Homo sapiens) (UniProt Q96RI1); assay: Agonist activity at human FXR expressed in human HeLa cells assessed as transactivation at 3 uM after 24 hrs by luciferase reporter gene assay relative to GW4064; format: cell-based
T1 sequence (whole entry): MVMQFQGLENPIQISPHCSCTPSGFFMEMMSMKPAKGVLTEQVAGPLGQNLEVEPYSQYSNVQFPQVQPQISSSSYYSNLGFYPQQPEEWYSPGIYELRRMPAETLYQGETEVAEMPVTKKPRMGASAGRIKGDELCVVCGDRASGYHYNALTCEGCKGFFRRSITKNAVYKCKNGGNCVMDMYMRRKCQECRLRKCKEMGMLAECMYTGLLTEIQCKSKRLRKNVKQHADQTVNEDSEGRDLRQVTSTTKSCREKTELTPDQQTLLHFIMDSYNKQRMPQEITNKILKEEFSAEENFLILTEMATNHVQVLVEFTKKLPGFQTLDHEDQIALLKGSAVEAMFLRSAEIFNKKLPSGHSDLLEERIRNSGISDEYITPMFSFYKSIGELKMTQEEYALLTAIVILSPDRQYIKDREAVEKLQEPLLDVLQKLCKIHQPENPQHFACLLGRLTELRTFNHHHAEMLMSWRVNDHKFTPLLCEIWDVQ

HeLa [2] = assay: Cytotoxicity against human HeLa cells at >10 uM after 48 hrs by WST-1 assay; format: cell-based
Bile acid receptor = target: T2, Bile acid receptor (Homo sapiens, UniProt Q96RI1); assay: Agonist activity at human FXR expressed in human HeLa cells assessed as transactivation after 24 hrs by luciferase reporter gene assay; format: cell-based
T2 sequence (Q96RI1 whole entry): T1 sequence (whole entry)

[3] = target: T1, Bile acid receptor (Homo sapiens); assay: Agonist activity at human FXR expressed in human HeLa cells assessed as transactivation after 24 hrs by luciferase reporter gene assay relative to GW4064; format: cell-based
[4] = target: T1, Bile acid receptor (Homo sapiens); assay: Agonist activity at human FXR expressed in human HeLa cells assessed as transactivation at 30 uM after 24 hrs by luciferase reporter gene assay relative to GW4064; format: cell-based
HepG2 [5] = assay: Cytotoxicity against human HepG2 cells at 10 uM after 48 hrs by WST-1 assay relative to control; format: cell-based; settings: hepg2, 48 h
HepG2 [6] = assay: Cytotoxicity against human HepG2 cells at 60 uM after 48 hrs by WST-1 assay relative to control; format: cell-based; settings: hepg2, 48 h
HepG2 [7] = assay: Cytotoxicity against human HepG2 cells at 30 uM after 48 hrs by WST-1 assay relative to control; format: cell-based; settings: hepg2, 48 h
HeLa [8] = assay: Cytotoxicity against human HeLa cells at 60 uM after 48 hrs by WST-1 assay; format: cell-based
[9] = Metabolic stability in Sprague-Dawley rat liver microsomes assessed as compound remaining at 10 uM after 60 mins by HPLC analysis; format: ADME; settings: read-out: Stability
[10] = Metabolic stability in Sprague-Dawley rat liver microsomes assessed as compound remaining at 10 uM after 30 mins by HPLC analysis; format: ADME; settings: read-out: Stability
[11] = Metabolic stability in Sprague-Dawley rat liver microsomes assessed as compound remaining at 10 uM after 15 mins by HPLC analysis; format: ADME; settings: read-out: Stability
[12] = Aqueous solubility of the compound; format: physicochemical; settings: water
HepG2 [13] = assay: Cytotoxicity against human HepG2 cells at 100 uM after 48 hrs by WST-1 assay relative to control; format: cell-based; settings: hepg2, 48 h
[14] = target: T3, Polyunsaturated fatty acid 5-lipoxygenase (Homo sapiens) (UniProt P09917); assay: Inhibition of 5-LO in human polymorphonuclear leukocytes using arachidonic acid as substrate at 10 uM preincubated for 15 mins followed by substrate addition measured after 10 mins by HPLC analysis in presence of Ca2+-ionophore A23187; format: cell-based
T3 sequence (whole entry): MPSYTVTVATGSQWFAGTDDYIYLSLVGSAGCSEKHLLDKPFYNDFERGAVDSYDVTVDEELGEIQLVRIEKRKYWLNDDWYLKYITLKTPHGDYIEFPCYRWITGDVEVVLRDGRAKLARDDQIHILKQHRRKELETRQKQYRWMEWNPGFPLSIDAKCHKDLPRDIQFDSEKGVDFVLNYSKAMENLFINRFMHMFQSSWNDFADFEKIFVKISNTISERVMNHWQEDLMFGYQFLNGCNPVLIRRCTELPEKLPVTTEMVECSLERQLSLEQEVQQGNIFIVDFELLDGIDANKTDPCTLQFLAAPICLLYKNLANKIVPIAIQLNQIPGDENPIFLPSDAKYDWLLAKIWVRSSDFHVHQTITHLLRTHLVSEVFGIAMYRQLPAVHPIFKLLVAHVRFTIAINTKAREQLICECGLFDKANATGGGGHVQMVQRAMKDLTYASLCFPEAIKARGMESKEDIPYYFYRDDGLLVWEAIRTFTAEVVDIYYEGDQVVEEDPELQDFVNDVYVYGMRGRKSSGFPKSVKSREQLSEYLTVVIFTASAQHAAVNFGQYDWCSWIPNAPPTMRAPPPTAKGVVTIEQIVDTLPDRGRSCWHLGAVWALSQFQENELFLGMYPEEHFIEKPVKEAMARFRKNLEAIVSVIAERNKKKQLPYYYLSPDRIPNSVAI

[15] = target: T4, Prostaglandin E synthase (Homo sapiens) (UniProt O14684); assay: Inhibition of mPGES1 mediated PGE2 production in IL-1beta stimulated human A549 cells at 10 uM by RP-HPLC analysis; format: cell-based
T4 sequence (whole entry): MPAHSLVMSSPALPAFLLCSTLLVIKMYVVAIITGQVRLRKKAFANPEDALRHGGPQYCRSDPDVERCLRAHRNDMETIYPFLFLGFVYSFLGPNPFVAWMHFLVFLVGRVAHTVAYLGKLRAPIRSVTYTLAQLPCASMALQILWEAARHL

[16] = target: T5, Prostaglandin G/H synthase 2 (Homo sapiens) (UniProt P35354); assay: Inhibition of recombinant human COX2 using arachidonic acid as substrate up to 10 uM preincubated for 5 mins followed by substrate addition measured after 5 mins
T5 sequence (whole entry): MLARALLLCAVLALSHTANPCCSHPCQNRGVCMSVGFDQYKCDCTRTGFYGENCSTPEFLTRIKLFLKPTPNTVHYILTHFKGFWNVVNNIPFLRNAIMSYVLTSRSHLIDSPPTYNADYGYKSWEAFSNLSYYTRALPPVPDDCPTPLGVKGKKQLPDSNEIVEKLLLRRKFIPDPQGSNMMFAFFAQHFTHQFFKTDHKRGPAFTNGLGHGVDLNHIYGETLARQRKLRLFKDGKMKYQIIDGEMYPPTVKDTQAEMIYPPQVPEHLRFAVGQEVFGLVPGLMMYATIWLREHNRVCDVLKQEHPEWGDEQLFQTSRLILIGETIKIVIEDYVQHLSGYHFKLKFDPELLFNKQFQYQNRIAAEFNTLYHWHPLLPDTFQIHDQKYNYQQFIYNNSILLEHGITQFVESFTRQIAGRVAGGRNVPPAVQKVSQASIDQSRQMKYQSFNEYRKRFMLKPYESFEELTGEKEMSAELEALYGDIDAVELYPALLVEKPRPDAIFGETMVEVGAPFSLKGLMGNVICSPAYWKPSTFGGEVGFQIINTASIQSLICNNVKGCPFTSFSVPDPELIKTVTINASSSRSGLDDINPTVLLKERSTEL

[17] = target: T6, Prostaglandin G/H synthase 1 (Ovis aries) (UniProt P05979); assay: Inhibition of ovine COX1 using arachidonic acid as substrate up to 10 uM preincubated for 5 mins followed by substrate addition measured after 5 mins
T6 sequence (whole entry): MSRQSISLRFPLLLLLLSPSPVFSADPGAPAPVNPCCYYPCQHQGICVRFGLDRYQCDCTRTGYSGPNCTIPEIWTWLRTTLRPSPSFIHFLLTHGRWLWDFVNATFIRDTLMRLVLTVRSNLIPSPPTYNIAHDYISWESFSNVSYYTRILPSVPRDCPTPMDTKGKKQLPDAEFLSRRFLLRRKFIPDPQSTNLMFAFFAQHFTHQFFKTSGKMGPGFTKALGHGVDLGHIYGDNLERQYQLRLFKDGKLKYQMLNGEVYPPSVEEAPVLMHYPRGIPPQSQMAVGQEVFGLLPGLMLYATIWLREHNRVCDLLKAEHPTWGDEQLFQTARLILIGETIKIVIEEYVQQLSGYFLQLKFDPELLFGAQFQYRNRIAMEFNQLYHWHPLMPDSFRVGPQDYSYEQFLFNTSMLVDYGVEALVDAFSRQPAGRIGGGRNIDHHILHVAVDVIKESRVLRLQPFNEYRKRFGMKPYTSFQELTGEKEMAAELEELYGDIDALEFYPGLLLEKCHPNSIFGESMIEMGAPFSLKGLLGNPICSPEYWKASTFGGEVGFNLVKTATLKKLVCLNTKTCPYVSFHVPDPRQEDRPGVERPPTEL

| Compound | EC50 (Bile acid receptor) [µM] | max activation [3] [%] | max activation [4] | further results |
| --- | --- | --- | --- | --- |
| COc1ccc(C(=O)Nc2ccccc2C(=O)NCCCC(=O)O)cc1 | – | – | – | max activation [1]: inactive; Activity (HeLa [2]): Toxic |
| CC(C)(C)c1ccc(C(=O)Nc2ccccc2C(=O)NCCCC(=O)O)cc1 | 2.5 | 19 | – | – |
| O=C(O)CCCNC(=O)c1ccccc1NC(=O)c1ccc(-c2ccccc2)cc1 | – | – | – | max activation [1]: inactive; Activity (HeLa [2]): Toxic |
| O=C(O)c1ccc(CNC(=O)c2ccccc2NC(=O)c2ccc3ccccc3c2)cc1 | 1.3 | 10 | – | – |
| O=C(O)CCCNC(=O)c1ccccc1NCc1ccc2ccccc2c1 | – | – | inactive | – |
| O=C(O)CCCNC(=O)c1ccccc1NS(=O)(=O)c1ccc2ccccc2c1 | – | – | inactive | – |
| O=C(O)CCCNC(=O)c1ccccc1NC(=O)CCc1ccccc1 | – | – | inactive | – |
| O=C(O)CCCNC(=O)c1ccccc1NC(=O)Cc1ccc2ccccc2c1 | – | – | inactive | – |
| O=C(O)CCCNC(=O)c1ccccc1NC(=O)c1cc([N+](=O)[O-])cc([N+](=O)[O-])c1 | – | – | inactive | – |
| O=C(O)Cc1ccc(NC(=O)c2ccccc2NC(=O)c2ccc3ccccc3c2)cc1 | 3.1 | 9.8 | – | – |
| O=C(O)CCCNC(=O)c1ccccc1NC(=O)/C=C/c1ccccc1 | 0.72 | 12.4 | – | – |
| O=C(O)CCCNC(=O)c1ccccc1NC(=O)C(c1ccccc1)c1ccccc1 | – | – | – | max activation [1]: inactive; Activity (HeLa [2]): Toxic |
| O=C(O)CCCCCNC(=O)c1ccccc1NC(=O)c1ccc2ccccc2c1 | 4.4 | 10.4 | – | – |
| O=C(O)c1ccc(NC(=O)c2ccccc2NC(=O)c2ccc3ccccc3c2)cc1 | 1 | 23 | – | – |
| Cc1ccc(C(=O)Nc2ccccc2C(=O)NCCCC(=O)O)cc1 | – | – | 11% | – |
| COC(=O)CCCNC(=O)c1ccccc1NC(=O)c1ccc2ccccc2c1 | 7.1 | 19 | – | – |
| O=C(O)c1cccc(NC(=O)c2ccccc2NC(=O)c2ccc3ccccc3c2)c1 | 1.5 | 37 | – | Activity (HepG2 [5]): 93%; Activity (HepG2 [6]): 50%; Activity (HepG2 [7]): 65%; Activity (HeLa [8]): Non-toxic; remaining at 1 h, 10 µM [9]: 61%; remaining at 0.5 h, 10 µM [10]: 76%; remaining at 0.25 h, 10 µM [11]: 86%; solubility [12]: 0.3 µg/mL (≈ 0.731 µM); Activity (HepG2 [13]): 46% |
| CCc1ccc(C(=O)Nc2ccccc2C(=O)NCCCC(=O)O)cc1 | 5.8 | 28 | – | – |
| CN(C(=O)c1ccc2ccccc2c1)c1ccccc1C(=O)NCCCC(=O)O | – | – | inactive | – |
| O=C(O)CCCNC(=O)c1ccccc1NC(=O)CC(c1ccccc1)c1ccccc1 | – | – | inactive | – |
| O=C(O)CCCNC(=O)c1ccccc1NC(=O)c1ccccc1-c1ccccc1 | – | – | inactive | – |
| O=C(O)CCCNCc1ccccc1NC(=O)c1ccc2ccccc2c1 | – | – | inactive | – |
| O=C(O)CCCNC(=O)c1ccccc1NC(=O)c1ccc2ccccc2c1 | 8.55 | 37 | – | inhibition [14]: inactive; Activity (HepG2 [5]): 92%; Activity (HepG2 [6]): 81%; Activity (HepG2 [7]): 90%; Activity (HeLa [8]): Non-toxic; inhibition [15]: inactive; remaining at 1 h, 10 µM [9]: 92%; remaining at 0.5 h, 10 µM [10]: 93%; remaining at 0.25 h, 10 µM [11]: 93%; solubility [12]: 45 µg/mL (≈ 120 µM); inhibition [16]: inactive; inhibition [17]: inactive; Activity (HepG2 [13]): 84% |
| CN(CCCC(=O)O)C(=O)c1ccccc1NC(=O)c1ccc2ccccc2c1 | – | – | inactive | – |
| O=C(O)CCCNC(=O)c1ccccc1NC(=O)c1cccs1 | – | – | – | max activation [1]: inactive; Activity (HeLa [2]): Toxic |
| O=C(O)CCCNC(=O)c1ccccc1NC(=O)c1cccc(-c2ccccc2)c1 | – | – | inactive | – |
| O=C(O)CCCNC(=O)c1ccccc1NC(=O)c1cccc2ccccc12 | – | – | inactive | – |
| O=C(O)CCCCNC(=O)c1ccccc1NC(=O)c1ccc2ccccc2c1 | 8.3 | 11.4 | – | – |
| O=C(O)CCCNC(=O)c1ccccc1NC(=O)c1ccncc1 | – | – | inactive | – |

From ChEMBL document CHEMBL3259655, “Anthranilic acid derivatives as novel ligands for farnesoid X receptor (FXR)” (Bioorg Med Chem, 2014)
